Laboratory results from US20240099302A1, “Use of a Biobased Composition Comprising Ferulated Chitosan for Regulating and Stimulating Plant Growth” (FYTEKO SA, priority 2020, published 2024).

System: new guinea impatient plants cultivar Sony pink
Assay: Effect of foliar spraying on flowering of new guinea impatient plants
Type: in vivo
Settings: foliar spraying once a week for 8 weeks, evaluated 22 weeks after sowing
Procedure: Different treatments were applied by foliar spraying on one-month old new guinea impatient plants cultivar Sony pink once a week for 8 weeks. The effect of foliage of application on the inflorescence was evaluated at the end of the flowering step (22 weeks after sowing) and the results are shown in Table 12.

| Molecule | Average diameter of the flowers | Total number of flowers per plant |
| --- | --- | --- |
| COc1cc(/C=C/C(=O)O)ccc1O [Ferulic acid] | 6.40 cm | 60.0 |
| Diferulic acid | 6.52 cm | 74.2 |
